Measured values: patent US8952024B2, “Herbicidal pyrimidone derivatives” (E I du Pont de Nemours and Company, priority 2009, dated 2015)
Where two headings read alike, the source gives them in different places.

Key:
Type in all cases: in vivo
[1] = tested on: Surinam grass (Brachiaria decumbens); assay: Test B pre-/postemergence plant response; conditions: Urochloa decumbens, read-out: Plant response rating, Surinam Grass
Outline: (§1)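 Plants treated either at seeding (loam/sand soil) or postemergence at 2 to 18 cm height, using a surfactant-containing non-phytotoxic solvent formulation. Evaluation was visual after 13 to 15 days, 0 to 100 scale relative to controls.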

[2] = tested on: cocklebur (Xanthium strumarium); assay: Test B pre-/postemergence plant response; conditions: Preemergence
Outline: as §1

corn (Zea mays) = assay: Test B pre-/postemergence plant response; conditions: for Corn plant response rating (crop injury, 0 = no effect, 100 = complete kill) at 31 g/ha: 31 g ai/ha; for Corn plant response rating (crop injury, 0 = no effect, 100 = complete kill) at 62 g/ha: 62 g ai/ha; for Corn plant response rating (crop injury, 0 = no effect, 100 = complete kill) at 125 g/ha: 125 g ai/ha
Outline: as §1

[3] = tested on: giant foxtail (Setaria faberii); assay: Test B pre-/postemergence plant response; conditions: for pest or weed control at 31 g/ha: 31 g ai/ha; for pest or weed control at 62 g/ha: 62 g ai/ha; for pest or weed control at 125 g/ha: 125 g ai/ha
Outline: as §1

[4] = tested on: Italian ryegrass (Lolium multiflorum); assay: Test B pre-/postemergence plant response; conditions: for pest or weed control at 31 g/ha: 31 g ai/ha; for pest or weed control at 62 g/ha: 62 g ai/ha; for pest or weed control at 125 g/ha: 125 g ai/ha
Outline: as §1

[5] = tested on: windgrass (Apera spica-venti); assay: Test B postemergence plant response; conditions: Apera spica-venti, post-emergence, 360 h, Postemergence, read-out: Plant response rating, Windgrass
Outline: (§2)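 Visual ratings from 0 (no effect) to 100 (complete control), made against controls 13–15 days after treatment, kept in a greenhouse. Compounds were applied postemergence to potted plants at the 1- to 4-leaf stage (2–18 cm).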

[6] = tested on: chickweed (Stellaria media); assay: Test B postemergence plant response; conditions: Stellaria media, post-emergence, 360 h, Postemergence, read-out: Plant response rating, Chickweed
Outline: as §2

[7] = tested on: canarygrass (Phalaris minor); assay: Test B postemergence plant response; conditions: Phalaris minor, post-emergence, 360 h, Postemergence, read-out: Plant response rating, Canarygrass
Outline: as §2

[8] = Preemergence, 250 g ai/ha, 0 to 100 scale
[9] = Zea mays, pre-emergence, Preemergence, scale 0 to 100 (0 no effect, 100 complete control)
[10] = Setaria faberi, pre-emergence, Preemergence, scale 0 to 100 (0 no effect, 100 complete control), read-out: Plant response rating, Foxtail, Giant
[11] = Lolium multiflorum, pre-emergence, Preemergence, scale 0 to 100 (0 no effect, 100 complete control), read-out: Plant response rating, Ryegrass, Italian
[12] = 31 g ai/ha, 0 to 100 scale (0 no effect, 100 complete control)
[13] = 62 g ai/ha, scale 0 to 100 (0 no effect, 100 complete control)
[14] = 125 g ai/ha, scale 0 (no effect) to 100 (complete control), 13 to 15 days
[15] = 250 g ai/ha, scale 0 to 100 (0 no effect, 100 complete control), 13 to 15 days

## COCCn1c(-c2cc(F)cc(F)c2)ncc(C(=O)C2=C(O)C3CCC(C3)C2=O)c1=O (stereo not shown) [Compound 243, 2-(3,5-difluorophenyl)-5-[(2-hydroxy-4-oxobicyclo[3.2.1]oct-2-en-3-yl)carbonyl]-3-(2-methoxyethyl)-4(3H)-pyrimidinone]
[1]; post-emergence, Postemergence, 250 g ai/ha, scale 0 to 100 (0 no effect, 100 complete control), 13 to 15 days
  pest or weed control at 250 g/ha: 100%
[1]; pre-emergence, Preemergence, 31 g ai/ha, scale 0 to 100 (0 no effect, 100 complete control)
  pest or weed control at 31 g/ha: 80%
[1]; pre-emergence, Preemergence, 62 g ai/ha, scale 0 to 100 (0 no effect, 100 complete control)
  pest or weed control at 62 g/ha: 98%
[1]; pre-emergence, Preemergence, 125 g ai/ha, scale 0 to 100, 0 no effect, 100 complete control
  pest or weed control at 125 g/ha: 100%
[2]; 250 g ai/ha, 0 to 100 scale
  Cocklebur plant response rating: 98
[2]; Xanthium strumarium, pre-emergence, 62 g ai/ha, scale 0 to 100 (0 no effect, 100 complete control), read-out: Plant response rating, Cocklebur
  pest or weed control at 62 g/ha: 75%
[2]; Xanthium strumarium, pre-emergence, 125 g ai/ha, scale 0 to 100, 0 no effect, 100 complete control, read-out: Plant response rating, Cocklebur
  pest or weed control at 125 g/ha: 95%
Corn (Zea mays); [8]
  Corn plant response rating: 95
Corn (Zea mays); Zea mays, post-emergence, Postemergence, 0 to 100 scale (0 no effect, 100 complete control)
  Corn plant response rating (crop injury, 0 = no effect, 100 = complete kill) at 31 g/ha: 90%
Corn (Zea mays); Zea mays, post-emergence, Postemergence, scale 0 to 100 (0 no effect, 100 complete control)
  Corn plant response rating (crop injury, 0 = no effect, 100 = complete kill) at 62 g/ha: 95%
Corn (Zea mays); Zea mays, post-emergence, Postemergence, scale 0 (no effect) to 100 (complete control), 13 to 15 days
  Corn plant response rating (crop injury, 0 = no effect, 100 = complete kill) at 125 g/ha: 100%
Corn (Zea mays); Zea mays, post-emergence, Postemergence, 250 g ai/ha, scale 0 to 100 (0 no effect, 100 complete control), 13 to 15 days
  Corn plant response rating (crop injury, 0 = no effect, 100 = complete kill) at 250 g/ha: 100%
Corn (Zea mays); [9]
  Corn plant response rating (crop injury, 0 = no effect, 100 = complete kill) at 31 g/ha: 65%
  Corn plant response rating (crop injury, 0 = no effect, 100 = complete kill) at 62 g/ha: 75%
Corn (Zea mays); Zea mays, pre-emergence, Preemergence, scale 0 to 100, 0 no effect, 100 complete control
  Corn plant response rating (crop injury, 0 = no effect, 100 = complete kill) at 125 g/ha: 85%
[3]; [8]
  Foxtail, Giant plant response rating: 95
[3]; Setaria faberi, post-emergence, Postemergence, 0 to 100 scale (0 no effect, 100 complete control), read-out: Plant response rating, Foxtail, Giant
  pest or weed control at 31 g/ha: 95%
[3]; Setaria faberi, post-emergence, Postemergence, scale 0 to 100 (0 no effect, 100 complete control), read-out: Plant response rating, Foxtail, Giant
  pest or weed control at 62 g/ha: 95%
[3]; Setaria faberi, post-emergence, Postemergence, scale 0 (no effect) to 100 (complete control), 13 to 15 days, read-out: Plant response rating, Foxtail, Giant
  pest or weed control at 125 g/ha: 98%
[3]; Setaria faberi, post-emergence, Postemergence, 250 g ai/ha, scale 0 to 100 (0 no effect, 100 complete control), 13 to 15 days, read-out: Plant response rating, Foxtail, Giant
  pest or weed control at 250 g/ha: 98%
[3]; [10]
  pest or weed control at 31 g/ha: 55%
  pest or weed control at 62 g/ha: 85%
[3]; Setaria faberi, pre-emergence, Preemergence, scale 0 to 100, 0 no effect, 100 complete control, read-out: Plant response rating, Foxtail, Giant
  pest or weed control at 125 g/ha: 95%
[4]; Lolium multiflorum, post-emergence, Postemergence, 0 to 100 scale (0 no effect, 100 complete control), read-out: Plant response rating, Ryegrass, Italian
  pest or weed control at 31 g/ha: 60%
[4]; Lolium multiflorum, post-emergence, Postemergence, scale 0 to 100 (0 no effect, 100 complete control), read-out: Plant response rating, Ryegrass, Italian
  pest or weed control at 62 g/ha: 85%
[4]; Lolium multiflorum, post-emergence, Postemergence, scale 0 (no effect) to 100 (complete control), 13 to 15 days, read-out: Plant response rating, Ryegrass, Italian
  pest or weed control at 125 g/ha: 85%
[4]; Lolium multiflorum, post-emergence, Postemergence, 250 g ai/ha, scale 0 to 100 (0 no effect, 100 complete control), 13 to 15 days, read-out: Plant response rating, Ryegrass, Italian
  pest or weed control at 250 g/ha: 95%
[4]; [11]
  pest or weed control at 31 g/ha: 0%
  pest or weed control at 62 g/ha: 10%
[4]; Lolium multiflorum, pre-emergence, Preemergence, scale 0 to 100, 0 no effect, 100 complete control, read-out: Plant response rating, Ryegrass, Italian
  pest or weed control at 125 g/ha: 45%
[4]; [8]
  Ryegrass, Italian plant response rating: 70
[5]; [12]
  pest or weed control at 31 g/ha: 80%
[5]; [13]
  pest or weed control at 62 g/ha: 90%
[5]; [14]
  pest or weed control at 125 g/ha: 98%
[5]; [15]
  pest or weed control at 250 g/ha: 100%
[6]; [12]
  pest or weed control at 31 g/ha: 80%
[6]; [13]
  pest or weed control at 62 g/ha: 100%
[6]; [14]
  pest or weed control at 125 g/ha: 100%
[6]; [15]
  pest or weed control at 250 g/ha: 100%
[7]; [12]
  pest or weed control at 31 g/ha: 90%
[7]; [13]
  pest or weed control at 62 g/ha: 98%
[7]; [14]
  pest or weed control at 125 g/ha: 100%
[7]; [15]
  pest or weed control at 250 g/ha: 100%
